{
  "source": "ChEMBL document CHEMBL1201861",
  "about": "“Genomics of Drug Sensitity in Cancer screening data, Wellcome Trust Sanger Institute”",
  "test_in_all_cases": "cells",
  "key": {"GCIY": {"system": "GCIY", "format": "functional, cell-based, Homo sapiens", "details": "Homo sapiens, GCIY", "description": "SANGER: Inhibition of human GCIY cell growth in a cell viability assay."}, "CFPAC-1": {"system": "CFPAC-1", "format": "functional, cell-based", "details": "Homo sapiens", "description": "SANGER: Inhibition of human CFPAC-1 cell growth in a cell viability assay."}, "EC-GI-10": {"system": "EC-GI-10", "format": "functional, cell-based, Homo sapiens", "details": "Homo sapiens, EC-GI-10", "description": "SANGER: Inhibition of human EC-GI-10 cell growth in a cell viability assay."}, "NBsusSR": {"system": "NBsusSR", "format": "functional, cell-based", "details": "Homo sapiens", "description": "SANGER: Inhibition of human NBsusSR cell growth in a cell viability assay."}, "SNU-387": {"system": "SNU-387", "format": "functional, cell-based, Homo sapiens", "details": "Homo sapiens, SNU-387", "description": "SANGER: Inhibition of human SNU-387 cell growth in a cell viability assay."}, "EFO-21": {"system": "EFO-21", "format": "functional, cell-based, Homo sapiens", "details": "Homo sapiens, EFO-21", "description": "SANGER: Inhibition of human EFO-21 cell growth in a cell viability assay."}, "COLO-668": {"system": "COLO-668", "format": "functional, cell-based, Homo sapiens", "details": "Homo sapiens, COLO-668", "description": "SANGER: Inhibition of human COLO-668 cell growth in a cell viability assay."}, "NCI-H1573": {"system": "NCI-H1573", "format": "functional, cell-based", "details": "Homo sapiens", "description": "SANGER: Inhibition of human NCI-H1573 cell growth in a cell viability assay."}, "ECC10": {"system": "ECC10", "format": "functional, cell-based", "details": "Homo sapiens", "description": "SANGER: Inhibition of human ECC10 cell growth in a cell viability assay."}, "HCC1187": {"system": "HCC1187", "format": "functional, cell-based, Homo sapiens", "details": "Homo sapiens, HCC1187", "description": "SANGER: Inhibition of human HCC1187 cell growth in a cell viability assay."}, "NCI-H2342": {"system": "NCI-H2342", "format": "functional, cell-based", "details": "Homo sapiens", "description": "SANGER: Inhibition of human NCI-H2342 cell growth in a cell viability assay."}, "NCI-H1666": {"system": "NCI-H1666", "format": "functional, cell-based", "details": "Homo sapiens", "description": "SANGER: Inhibition of human NCI-H1666 cell growth in a cell viability assay."}, "HSC-3": {"system": "HSC-3", "format": "functional, cell-based, Homo sapiens", "details": "Homo sapiens, HSC-3", "description": "SANGER: Inhibition of human HSC-3 cell growth in a cell viability assay."}, "ABC-1": {"system": "ABC-1", "format": "functional, cell-based, Homo sapiens", "details": "Homo sapiens, ABC-1", "description": "SANGER: Inhibition of human ABC-1 cell growth in a cell viability assay."}, "D-263MG": {"system": "D-263MG", "format": "functional, cell-based, Homo sapiens", "details": "Homo sapiens, D-263MG", "description": "SANGER: Inhibition of human D-263MG cell growth in a cell viability assay."}, "EPLC-272H": {"system": "EPLC-272H", "format": "functional, cell-based", "details": "Homo sapiens", "description": "SANGER: Inhibition of human EPLC-272H cell growth in a cell viability assay."}, "SBC-5": {"system": "SBC-5", "format": "functional, cell-based, Homo sapiens", "details": "Homo sapiens, SBC-5", "description": "SANGER: Inhibition of human SBC-5 cell growth in a cell viability assay."}, "23132-87": {"system": "23132-87", "format": "functional, cell-based, Homo sapiens", "details": "Homo sapiens", "description": "SANGER: Inhibition of human 23132-87 cell growth in a cell viability assay."}, "IGR-1": {"system": "IGR-1", "format": "functional, cell-based, Homo sapiens", "details": "Homo sapiens, IGR-1", "description": "SANGER: Inhibition of human IGR-1 cell growth in a cell viability assay."}, "EM-2": {"system": "EM-2", "format": "functional, cell-based", "details": "Homo sapiens", "description": "SANGER: Inhibition of human EM-2 cell growth in a cell viability assay."}, "RPMI-2650": {"system": "RPMI-2650", "format": "functional, cell-based, Homo sapiens", "details": "Homo sapiens, RPMI-2650", "description": "SANGER: Inhibition of human RPMI-2650 cell growth in a cell viability assay."}, "FaDu": {"system": "FaDu", "format": "functional, cell-based, Homo sapiens", "details": "Homo sapiens, FaDu", "description": "SANGER: Inhibition of human FADU cell growth in a cell viability assay."}, "SCC-4": {"system": "SCC-4", "format": "functional, cell-based, Homo sapiens", "details": "Homo sapiens, SCC-4", "description": "SANGER: Inhibition of human SCC-4 cell growth in a cell viability assay."}, "8-MG-BA": {"system": "8-MG-BA", "format": "functional, cell-based, Homo sapiens", "details": "Homo sapiens, 8-MG-BA", "description": "SANGER: Inhibition of human 8-MG-BA cell growth in a cell viability assay."}, "KNS-62": {"system": "KNS-62", "format": "functional, cell-based", "details": "Homo sapiens", "description": "SANGER: Inhibition of human KNS-62 cell growth in a cell viability assay."}, "L-428": {"system": "L-428", "format": "functional, cell-based", "details": "Homo sapiens", "description": "SANGER: Inhibition of human L-428 cell growth in a cell viability assay."}, "TGBC11TKB": {"system": "TGBC11TKB", "format": "functional, cell-based", "details": "Homo sapiens", "description": "SANGER: Inhibition of human TGBC11TKB cell growth in a cell viability assay."}, "SW872": {"system": "SW872", "format": "functional, cell-based, Homo sapiens", "details": "Homo sapiens, SW872", "description": "SANGER: Inhibition of human SW872 cell growth in a cell viability assay."}, "COLO-684": {"system": "COLO-684", "format": "functional, cell-based", "details": "Homo sapiens", "description": "SANGER: Inhibition of human COLO-684 cell growth in a cell viability assay."}, "H-EMC-SS": {"system": "H-EMC-SS", "format": "functional, cell-based", "details": "Homo sapiens", "description": "SANGER: Inhibition of human H-EMC-SS cell growth in a cell viability assay."}},
  "note": "pIC50: −log10 of the molar value.",
  "data": [
    {"smiles": "CN(C)C/C=C/C(=O)Nc1cc2c(Nc3ccc(F)c(Cl)c3)ncnc2cc1O[C@H]1CCOC1", "note": "[AFATINIB]", "values": [
      {"measurement": "pIC50", "setting": "GCIY", "result": "< 6.30"},
      {"measurement": "pIC50", "setting": "CFPAC-1", "result": "< 6.30"},
      {"measurement": "pIC50", "setting": "EC-GI-10", "result": 7.23},
      {"measurement": "pIC50", "setting": "NBsusSR", "result": "< 6.30"},
      {"measurement": "pIC50", "setting": "SNU-387", "result": "< 6.30"},
      {"measurement": "pIC50", "setting": "EFO-21", "result": "< 6.30"},
      {"measurement": "pIC50", "setting": "COLO-668", "result": "< 6.30"},
      {"measurement": "pIC50", "setting": "NCI-H1573", "result": "< 6.30"},
      {"measurement": "pIC50", "setting": "ECC10", "result": "< 6.30"},
      {"measurement": "pIC50", "setting": "HCC1187", "result": "< 6.30"},
      {"measurement": "pIC50", "setting": "NCI-H2342", "result": "< 6.30"},
      {"measurement": "pIC50", "setting": "NCI-H1666", "result": "< 6.30"},
      {"measurement": "pIC50", "setting": "HSC-3", "result": 6.67},
      {"measurement": "pIC50", "setting": "ABC-1", "result": "< 6.30"},
      {"measurement": "pIC50", "setting": "D-263MG", "result": "< 6.30"},
      {"measurement": "pIC50", "setting": "EPLC-272H", "result": "< 6.30"},
      {"measurement": "pIC50", "setting": "SBC-5", "result": "< 6.30"},
      {"measurement": "pIC50", "setting": "23132-87", "result": 6.50},
      {"measurement": "pIC50", "setting": "IGR-1", "result": "< 6.30"},
      {"measurement": "pIC50", "setting": "EM-2", "result": "< 6.30"},
      {"measurement": "pIC50", "setting": "RPMI-2650", "result": "< 6.30"},
      {"measurement": "pIC50", "setting": "FaDu", "result": "< 6.30"},
      {"measurement": "pIC50", "setting": "SCC-4", "result": "< 6.30"},
      {"measurement": "pIC50", "setting": "8-MG-BA", "result": "< 6.30"},
      {"measurement": "pIC50", "setting": "KNS-62", "result": "< 6.30"},
      {"measurement": "pIC50", "setting": "L-428", "result": "< 6.30"},
      {"measurement": "pIC50", "setting": "TGBC11TKB", "result": "< 6.30"},
      {"measurement": "pIC50", "setting": "SW872", "result": "< 6.30"},
      {"measurement": "pIC50", "setting": "COLO-684", "result": "< 6.30"},
      {"measurement": "pIC50", "setting": "H-EMC-SS", "result": "< 6.30"}
    ]}
  ]
}
